Structures are written as SMILES. Residues, ends and D or L forms follow the SMILES beside them.

Assay [1] concerns A673 cells. Description: Living cell fluorescence imaging. The following applies: A673 cells pre‐incubated with 50 μM E9R for 1 h, then 10 μM CS2‐N‐E9R. The class given is cell-based, human. As to the method: E/F‐positive ES cells (A673) and E/F‐negative sarcoma cells (143B) were then seeded into confocal culture dishes at a density of 2 × 10^5 cells each dish in 1.5‐mL medium containing 10% FBS. After 24 h of cell attachment, the dishes were then washed three times with 1 mL PBS. The dishes were then cultured in medium with 10 μM probe CS2‐N‐E9R. The intracellular probe aggregations were then observed by Leica‐LCS‐SP8‐STED confocal microscope (Leica, Wetzlar, Germany).
E/F‐positive ES cells (A673 cells, RD‐ES cells) and E/F‐negative osteosarcoma cells (143B cells), hepatoma carcinoma cells (Hep3B cells), and […] embryonic human kidney cells (293T cells) were seeded into confocal culture dishes. All the dishes were incubated with 10 μM CS2‐N‐E9R for 1 h and washed three times with PBS buffer before imaging, except for the control and blocking groups. For the control group, A673 cells were incubated with 10 μM control probe CS2‐N‐E. For the blocking group, A673 cells were pre‐incubated with 50 μM peptide E9R as a blocking agent for 1 h, after that incubated with 10 μM probe CS2‐N‐E9R.

The target of assay [2] is T1, E/F in A673 cells (Homo sapiens, UniProt Q01543+Q01844).
T1 construct: endogenous in cells; host or cells: A673 cells (fixed and permeabilised in A8, living in A10)
T1 sequence (Q01844+Q01543 with tags, fused parts or gaps): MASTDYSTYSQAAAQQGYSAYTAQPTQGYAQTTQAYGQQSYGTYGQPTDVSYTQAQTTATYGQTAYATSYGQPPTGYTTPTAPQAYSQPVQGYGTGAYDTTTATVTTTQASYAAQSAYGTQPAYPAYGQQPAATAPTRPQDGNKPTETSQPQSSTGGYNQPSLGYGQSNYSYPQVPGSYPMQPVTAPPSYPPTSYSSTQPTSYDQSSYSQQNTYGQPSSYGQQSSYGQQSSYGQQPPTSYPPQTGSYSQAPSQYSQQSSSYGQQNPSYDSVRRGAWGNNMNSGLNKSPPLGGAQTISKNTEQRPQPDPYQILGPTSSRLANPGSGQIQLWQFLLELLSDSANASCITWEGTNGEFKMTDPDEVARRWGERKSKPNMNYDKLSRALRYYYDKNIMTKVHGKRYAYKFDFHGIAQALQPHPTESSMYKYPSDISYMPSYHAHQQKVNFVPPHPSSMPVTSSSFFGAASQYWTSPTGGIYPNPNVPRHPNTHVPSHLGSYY
In words: Binding affinity test (competition of E9R with CS2‐N‐E9R). To be noted: E9R 4 × 10^−3 M to 4 × 10^−9 M incubated 1 h, washed, then 4 μM CS2‐N‐E9R 40 min, Odyssey Infrared Imager, average of quadruple wells, read-out: IC50 for the inhibition of CS2‐N‐E9R binding E/F. The procedure:
As to the binding affinity test, serial concentrations of E9R (from 4 × 10^−3 M to 4 × 10^−9 M) were prepared as competitors for CS2‐N‐E9R. A673 cells were seeded into 96‐well Black Polystyrene Assay plate at a concentration of 4 × 10^3 cells per well with 150 μL medium containing 10% FBS at incubator for 24 h. Different concentrations of E9R were added into palate and incubated for 1 h, and then washed three times with PBS (pH 7.4). 4 μM of CS2‐N‐E9R was then added into each well and incubated for another 40 min. After that the samples were washed and imaged with Odyssey® Infrared Imager. Each data point represents the average value of quadruple wells. Data were analyzed using GRAPHPAD PRISM (GraphPad Software, San Diego, CA, USA). IC50 values, which were defined as the concentration of competitive agent required to inhibit 50% of CS2‐N‐E9R binding, were calculated.

Take `CC[C@H](C)[C@H](NC(=O)[C@@H](NC(=O)[C@H](C)NC(=O)[C@H](CC(=O)O)NC(=O)[C@H](CC(C)C)NC(=O)[C@@H]1CCCN1C(=O)[C@@H]1CCCN1C(=O)[C@@H]1CCCN1)C(C)C)C(=O)N[C@@H](CCC(=O)O)C(=O)N[C@@H](C)C(=O)O` [E9R] (H-PPPLDAVIEA-OH; N-terminus assumed): the “fluorescence of CS2‐N‐E9R after pretreatment with blocking agent” value in assay [1] is “fluorescence muted”. Also, the IC50 in assay [2] was found to be 3.69 µM.
